Test results from US20230011571A1, “SMALL MOLECULE FURIN INHIBITORS FOR TREATING INFECTIOUS DISEASES” (BP Asset V, Inc., priority 2019, published 2023).

Key:
Type in all cases: cell-based
dengue virus (DENV) = assay: microbe, parasite or virus in culture; settings: Dengue virus, Vero, 120 h, read-out: Percent viral inhibition DENY
Marburg virus (MARV) = assay: organism not typed; settings: Vero, 72 h, read-out: Percent viral inhibition MARV
[1] = test system: Chikungunya virus (CHIKV); assay: microbe, parasite or virus in culture; settings: Chikungunya virus, Vero, 48 h, read-out: Percent viral inhibition CHKV

Compound | inhibition at 1 µM (dengue virus (DENV)) | inhibition at 1 µM (Marburg virus (MARV)) | inhibition at 1 µM [1]
CC(=O)NCC1CCN(Cc2cc(Oc3ccc(N4CCN(CCO)CC4)nc3)nc(-c3cc(Cl)cc(Cl)c3)c2)CC1 [Example 180, N-((1-((2-(3,5-dichlorophenyl)-6-((6-(4-(2-hydroxyethyl)piperazin-1-yl)pyridin-3-yl)oxy)pyridin-4-yl)methyl)piperidin-4-yl)methyl)acetamide] | 10.4% | 25.4% | 0%
CC(=O)NCC1CCN(Cc2cc(Oc3ccc(N4CC[N+](C)(C)CC4)nc3)nc(-c3cc(Cl)cc(Cl)c3)c2)CC1 [Example 181, 4-(5-((4-((4-(acetamidomethyl)piperidin-1-yl)methyl)-6-(3,5-dichlorophenyl)pyridin-2-yl)oxy)pyridin-2-yl)-1,1-dimethylpiperazin-1-ium] | 49.1% | 12.5% | 11.7%
CC(=O)NCC1CCN(Cc2cc(Oc3ccc(N4C[C@@H]5C[C@H]4CN5CCS(C)(=O)=O)nc3)nc(-c3cc(Cl)cc(Cl)c3)c2)CC1 [Example 183, N-((1-((2-(3,5-dichlorophenyl)-6-((6-((1S,4S)-5-(2-(methylsulfonyl)ethyl)-2,5-diazabicyclo[2.2.1]heptan-2-yl)pyridin-3-yl)oxy)pyridin-4-yl)methyl)piperidin-4-yl)methyl)acetamide] | 21% | 74.8% | 16.4%
CC(=O)NCC1CCN(Cc2cc(Oc3ccc(N4C[C@H]5CC[C@@H](C4)N5CCC(=O)O)nc3)nc(-c3cc(Cl)cc(Cl)c3)c2)CC1 [Example 185, 3-((1R,5S)-3-(5-((4-((4-(acetamidomethyl)piperidin-1-yl)methyl)-6-(3,5-dichlorophenyl)pyridin-2-yl)oxy)pyridin-2-yl)-3,8-diazabicyclo[3.2.1]octan-8-yl) propanoic acid] | 0% | 64.2% | 22.9%
CC(=O)NCC1CCN(Cc2cc(Oc3ccc(N4CCN(CCC(=O)O)[C@@H](C)C4)nc3)nc(-c3cc(Cl)cc(Cl)c3)c2)CC1 [Example 186] | 53.9% | 30.6% | 19.9%
O=C(O)CC1CCN(Cc2cc(Oc3ccc(N4C[C@@H]5C[C@H]4CN5)nc3)nc(-c3cc(Cl)cc(Cl)c3)c2)CC1 [Example 187, 2-(1-((2-((6-((1S,4S)-2,5-diazabicyclo[2.2.1]heptan-2-yl)pyridin-3-yl)oxy)-6-(3,5-dichlorophenyl)pyridin-4-yl)methyl)piperidin-4-yl) acetic acid] | 84% | 24.1% | 22.4%
CC(=O)NCC1CCN(Cc2cc(Oc3ccc(N4CCCN(CCC(=O)O)CC4)nc3)nc(-c3cc(Cl)cc(Cl)c3)c2)CC1 [Example 190, 3-(4-(5-((4-((4-(acetamidomethyl)piperidin-1-yl)methyl)-6-(3,5-dichlorophenyl)pyridin-2-yl)oxy)pyridin-2-yl)-1,4-diazepan-1-yl)propanoic acid] | 41.8% | 44.8% | 2.11%
CC(=O)NCC1CCN(Cc2cc(Oc3ccc(N4CCN(CCC(=O)O)C(C)(C)C4)nc3)nc(-c3cc(Cl)cc(Cl)c3)c2)CC1 [Example 191] | 71.2% | 50.6% | 14.2%
CC(=O)NCC1CCN(Cc2cc(Oc3ccc(N4CCNC(CO)C4)nc3)nc(-c3cc(Cl)cc(Cl)c3)c2)CC1 (stereo not drawn) [Example 195, N-((1-((2-(3,5-dichlorophenyl)-6-((6-(3-(hydroxymethyl)piperazin-1-yl)pyridin-3-yl)oxy)pyridin-4-yl)methyl)piperidin-4-yl)methyl)acetamide] | 39.4% | 38.2% | 18.1%
CC(=O)NCC1CCN(Cc2cc(Oc3ccc(N4CCC5(CCNC5)C4)nc3)nc(-c3cc(Cl)cc(Cl)c3)c2)CC1 (stereo not drawn) [Example 199, N-((1-((2-((6-(2,7-diazaspiro[4.4]-nonan2-yl)pyridin-3-yl)oxy)-6-(3,5-dichlorophenyl)pyridin-4-yl)methyl)piperidin-4-yl)methyl)acetamide] | 49% | 18.5% | 21.6%
CN1C[C@@H]2C[C@H]1CN2c1ccc(Oc2cc(CN3CCC(CC(=O)O)CC3)cc(-c3cc(Cl)cc(Cl)c3)n2)cn1 [Example 203, 2-(1-((2-(3,5-dichlorophenyl)-6-((6-((1S,4S)-5-methyl-2,5-diazabicyclo[2.2.1]heptan-2-yl)pyridin-3-yl)oxy)pyridin-4-yl)methyl)piperidin-4-yl)acetic acid] | 7.17% | 55.2% | 23.6%
CC(CCN1CCN(c2ncc(Oc3cc(CN4CCC(CC(=O)O)CC4)cc(-c4cc(Cl)cc(Cl)c4)n3)cn2)CC1)S(C)(=O)=O (stereo not drawn) [Example 205, 2-(1-((2-(3,5-dichlorophenyl)-6-((2-(4-(3-(methylsulfonyl)butyl)piperazin-1-yl)pyrimidin-5-yl)oxy)pyridin-4-yl)methyl)piperidin-4-yl)acetic acid] | 57.6% | 77.6% | 23.7%
O=C(O)CC1CCN(Cc2cc(Oc3cnc(N4CCNCC4)nc3)nc(-c3cc(Cl)cc(Cl)c3)c2)CC1 [Example 206, 2-(1-((2-(3,5-dichlorophenyl)-6-((2-(piperazin-1-yl)pyrimidin-5-yl)oxy)pyridin-4-yl)methyl)piperidin-4-yl)acetic acid] | 29.3% | 50.8% | 34.4%
CN1CCN(c2ncc(Oc3cc(CN4CCC(CC(=O)O)CC4)cc(-c4cc(Cl)cc(Cl)c4)n3)cn2)CC1 [Example 207, 2-(1-((2-(3,5-dichlorophenyl)-6-((2-(4-methylpiperazin-1-yl)pyrimidin-5-yl)oxy)pyridin-4-yl)methyl)piperidin-4-yl)acetic acid] | 47.9% | 42.2% | 26.3%
CNC(=O)OCC1CCN(Cc2cc(Oc3cnc(N4CCN(C(C)CCC(=O)O)CC4)nc3)nc(-c3cc(Cl)cc(Cl)c3)c2)CC1 (stereo not drawn) [Example 208, 4-(4-(5-((6-(3,5-dichlorophenyl)-4-((4-(((methylcarbamoyl)oxy)methyl)piperidin-1-yl)methyl)pyridin-2-yl)oxy)pyrimidin-2-yl)piperazin-1-yl)pentanoic acid] | 68.6% | 55.2% | 46.3%
CNC(=O)OCC1CCN(Cc2cc(Oc3cnc(N4CCN(CCCS(C)(=O)=O)CC4)nc3)nc(-c3cc(Cl)cc(Cl)c3)c2)CC1 [Example 210, (1-((2-(3,5-dichlorophenyl)-6-((2-(4-(3-(methylsulfonyl)propyl)piperazin-1-yl)pyrimidin-5-yl)oxy)pyridin-4-yl)methyl)piperidin-4-yl)methylmethylcarbamate] | 21% | 32.6% | 3.75%
CNC(=O)OCC1CCN(Cc2cc(Oc3cnc(N4CCN(C5CC(C(=O)O)C5)CC4)nc3)nc(-c3cc(Cl)cc(Cl)c3)c2)CC1 (stereo not drawn) [Example 211, 3-(4-(5-((6-(3,5-dichlorophenyl)-4-((4-(((methylcarbamoyl)oxy)methyl)piperidin-1-yl)methyl)pyridin-2-yl)oxy)pyrimidin-2-yl)piperazin-1-yl)cyclobutanecarboxylic acid] | 13.3% | 62.5% | 44.7%
CC(CC1CCN(Cc2cc(Oc3ccc(N4CCN(C)CC4)nc3)nc(-c3cc(Cl)cc(Cl)c3)c2)CC1)C(=O)O (stereo not drawn) [Example 213, 3-(1-((2-(3,5-dichlorophenyl)-6-((6-(4-methylpiperazin-1-yl)pyridin-3-yl)oxy)pyridin-4-yl)methyl)piperidin-4-yl)-2-methylpropanoic acid] | 28% | 49.3% | 26.5%
CC(=O)NCC1CCN(Cc2cc(Oc3cnc(N4CCN(C(C)CCC(=O)O)CC4)nc3)nc(-c3cc(Cl)cc(Cl)c3)c2)CC1 (stereo not drawn) [Example 215, 4-(4-(5-((4-((4-(acetamidomethyl)piperidin-1-yl)methyl)-6-(3,5-dichlorophenyl)pyridin-2-yl)oxy)pyrimidin-2-yl)piperazin-1-yl)pentanoic acid] | 24.4% | 56.7% | 32.5%
CC(=O)NCC1CCN(Cc2cc(Oc3cnc(N4CCN(C5CC(C(=O)O)C5)CC4)nc3)nc(-c3cc(Cl)cc(Cl)c3)c2)CC1 (stereo not drawn) [Example 216] | 8.34% | 38.5% | 21.4%
CNC(=O)NCC1CCN(Cc2cc(Oc3cnc(N4CCN(C5CC(C(=O)O)C5)CC4)nc3)nc(-c3cc(Cl)cc(Cl)c3)c2)CC1 (stereo not drawn) [Example 221, 3-(4-(5-((6-(3,5-dichlorophenyl)-4-((4-((3-methylureido)methyl)piperidin-1-yl)methyl)pyridin-2-yl)oxy)pyrimidin-2-yl)piperazin-1-yl) cyclobutanecarboxylic acid] | 25.9% | 63.2% | 44.4%
COC(=O)NCC1CCN(Cc2cc(Oc3cnc(N4CCN(C(C)CCC(=O)O)CC4)nc3)nc(-c3cc(Cl)cc(Cl)c3)c2)CC1 (stereo not drawn) [Example 222, 4-(4-(5-((6-(3,5-dichlorophenyl)-4-((4-(((methoxycarbonyl)amino)methyl)piperidin-1-yl)methyl)pyridin-2-yl)oxy)pyrimidin-2-yl)piperazin-1-yl)pentanoic acid] | 17.6% | 60% | 25%
CN1CCN(c2ncc(Oc3cc(CN4CC[C@@H]5[C@H](CC4)[C@H]5CC(=O)O)cc(-c4cc(Cl)cc(Cl)c4)n3)cn2)CC1 [Example 224, 2-((1R,7S,8r)-4-((2-(3,5-dichloro-phenyl)-6-((2-(4-methylpiperazin-1-yl)pyrimidin-5-yl)oxy)pyridin-4-yl)methyl)-4-azabicyclo[5.1.0]octan-8-yl)acetic acid] | 72% | 52.3% | 33.1%
